From ChEMBL document CHEMBL4219053, “Antiobesity and emetic effects of a short-length peptide YY analog and its PEGylated and alkylated derivatives” (Bioorg Med Chem, 2018)

Columns and labels:
[1] = target: T1, Neuropeptide Y receptor type 2 (Homo sapiens, UniProt P49146); test: Displacement of [125I]-PYY from human neuropeptide Y2 receptor expressed in CHO cell membranes incubated for 60 mins by TopCount micro scintillation analysis
T1 sequence (P49146 whole entry): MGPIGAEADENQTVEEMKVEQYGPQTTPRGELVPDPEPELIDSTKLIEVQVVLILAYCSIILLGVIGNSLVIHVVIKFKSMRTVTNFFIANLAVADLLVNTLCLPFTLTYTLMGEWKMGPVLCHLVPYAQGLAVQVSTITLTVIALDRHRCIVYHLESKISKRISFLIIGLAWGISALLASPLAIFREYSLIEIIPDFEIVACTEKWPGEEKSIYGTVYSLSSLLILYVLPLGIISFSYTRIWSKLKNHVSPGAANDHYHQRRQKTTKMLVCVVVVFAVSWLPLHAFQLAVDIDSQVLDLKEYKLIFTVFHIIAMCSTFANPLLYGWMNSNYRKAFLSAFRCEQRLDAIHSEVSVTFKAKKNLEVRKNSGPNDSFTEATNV

[2] = test system: Mus musculus; test: Anorectic activity in C57BL/6J mouse assessed as inhibition of food intake at 30 nmol/kg, sc qd for 3 days relative to control; assay type: functional; settings: 72 h
[3] = test system: Mus musculus; test: Antiobesity activity in DIO C57BL/6J mouse assessed as reduction in body weight at 10 nmol/kg, sc qd for 2 weeks; assay type: functional; parameters: scale not given: the % may be the effect or the level left
[4] = test system: Mus musculus; test: Antiobesity activity in DIO C57BL/6J mouse assessed as reduction in body weight at 3 nmol/kg, sc qd for 2 weeks; assay type: functional; parameters: scale not given: the % may be the effect or the level left
[5] = Cmax in C57BL/6J mouse at 10 nmol/kg, sc by LC-MS/MS analysis; assay type: ADME, organism-based; parameters: dose 10 nmol/kg, route subcutaneous; settings: in vivo
[6] = Tmax in C57BL/6J mouse at 10 nmol/kg, sc by LC-MS/MS analysis; assay type: ADME, organism-based; settings: in vivo
[7] = AUC (0 to 48 hrs) in C57BL/6J mouse at 10 nmol/kg, sc by LC-MS/MS analysis; assay type: ADME, organism-based; parameters: dose 10 nmol/kg, time < 48 hr, route subcutaneous; settings: in vivo
[8] = Mean residence time in C57BL/6J mouse at 10 nmol/kg, sc by LC-MS/MS analysis; assay type: ADME, organism-based; settings: in vivo
[9] = Tmax in Beagle dog at 3 nmol/kg, sc; assay type: ADME, organism-based, Canis lupus familiaris; settings: in vivo
[10] = Cmax in Beagle dog at 3 nmol/kg, sc; assay type: ADME, organism-based, Canis lupus familiaris; parameters: dose 3 nmol/kg, route subcutaneous; settings: in vivo
[11] = Solubility of the compound in water; assay type: physicochemical; settings: buffer
[12] = test system: Mus musculus; test: Antiobesity activity in DIO C57BL/6J mouse assessed as reduction in body weight at 30 nmol/kg, sc qd for 2 weeks; assay type: functional; parameters: scale not given: the % may be the effect or the level left
[13] = test system: Canis familiaris; test: Emetic effect in Beagle dog at 3 nmol/kg, sc measured up to 4 hrs; assay type: ADME, organism-based, Canis lupus familiaris; settings: in vivo
[14] = test system: Canis familiaris; test: Emetic effect in Beagle dog at 3 nmol/kg, sc measured after 4 to 8 hrs; assay type: ADME, organism-based, Canis lupus familiaris; settings: in vivo

Row | SMILES | IC50 [1] [nM] | inhibition in vivo at 0.03 µmol/kg [2] [%] | Activity [3] [%] | solubility [11] | Activity [12] [%] | other results
1 | CC[C@](C)(NC(=O)[C@H]1C[C@H](O)CN1C(=O)[C@H](CO)NC(=O)c1c[nH]cn1)C(=O)N[C@@H](Cc1ccncc1)C(=O)N[C@@H](CC1CCCCC1)C(=O)N[C@@H](CC(C)(C)C)C(=O)N[C@@H](CC(N)=O)C(=O)N[C@@H](CCCCNC(=O)COCC(=O)NCCCOCCOCCOCCCNC(=O)CC[C@H](NC(=O)[C@H]1CC[C@H](CNC(=O)CCCCCCCCCCCCCCCCCCC(=O)O)CC1)C(=O)O)C(=O)NC(C)(C)C(=O)N[C@H](C(=O)N[C@@H](CCCNC(=N)N)C(=O)N[C@@H](CCC(N)=O)C(=O)N[C@@H](CCCNC(=N)N)C(=O)N[C@@H](CC1CCCCC1)C(N)=O)[C@@H](C)O | 24 | 30 | – | – | – | –
2 | CCCCCCCCCCCCCCCC(=O)NC[C@H]1CC[C@H](C(=O)N[C@@H](CCC(=O)NCCCOCCOCCOCCCNC(=O)COCC(=O)N[C@@H](CO)C(=O)N2C[C@@H](O)C[C@@H]2C(=O)N[C@@H](CCCNC(=N)N)C(=O)N[C@@H](Cc2ccncc2)C(=O)N[C@@H](CC2CCCCC2)C(=O)NC(C)(C)C(=O)N[C@@H](CC(N)=O)C(=O)N[C@@H](CCCCNC(=O)C2CCNCC2)C(=O)NC(C)(C)C(=O)N[C@H](C(=O)N[C@@H](CCCNC(=N)N)C(=O)N[C@@H](CCC(N)=O)C(=O)N[C@@H](CCCNC(=N)N)C(=O)N[C@@H](CC2CCCCC2)C(N)=O)[C@@H](C)O)C(=O)O)CC1 | 0.19 | 68.3 | -19 | – | – | Activity [4]: -18.4%; Cmax [5]: 3.6 nM; Tmax [6]: 1 h; AUC(0-t) at 48 h [7]: 0.0122 µM·h; MRT [8]: 1.7 h; Tmax [9]: 2.5 h; Cmax [10]: 0.9 nM
3 | CC[C@](C)(NC(=O)[C@H]1C[C@H](O)CN1C(=O)[C@H](CO)NC(=O)c1c[nH]cn1)C(=O)N[C@@H](Cc1ccncc1)C(=O)N[C@@H](CC1CCCCC1)C(=O)N[C@@H](CC(C)(C)C)C(=O)N[C@@H](CC(N)=O)C(=O)N[C@@H](CCCCNC(=O)[C@@H](N)CCCCNC(=O)COCC(=O)NCCCOCCOCCOCCCNC(=O)CC[C@H](NC(=O)[C@H]1CC[C@H](CNC(=O)CCCCCCCCCCCCCCCCCCC(=O)O)CC1)C(=O)O)C(=O)NC(C)(C)C(=O)N[C@H](C(=O)N[C@@H](CCCNC(=N)N)C(=O)N[C@@H](CCC(N)=O)C(=O)N[C@@H](CCCNC(=N)N)C(=O)N[C@@H](CC1CCCCC1)C(N)=O)[C@@H](C)O | 13 | 67 | – | Insoluble | – | –
4 | CC[C@](C)(NC(=O)[C@H]1C[C@H](O)CN1C(=O)[C@H](CO)NC(=O)COCC(=O)NCCCOCCOCCOCCCNC(=O)CC[C@H](NC(=O)[C@H]1CC[C@H](CNC(=O)CCCCCCCCCCCCCCCCCCC(=O)O)CC1)C(=O)O)C(=O)N[C@@H](Cc1ccncc1)C(=O)N[C@@H](CC1CCCCC1)C(=O)N[C@@H](CC(C)(C)C)C(=O)N[C@@H](CC(N)=O)C(=O)N[C@@H](CCCCNC(C)=O)C(=O)NC(C)(C)C(=O)N[C@H](C(=O)N[C@@H](CCCNC(=N)N)C(=O)N[C@@H](CCC(N)=O)C(=O)N[C@@H](CCCNC(=N)N)C(=O)N[C@@H](CC1CCCCC1)C(N)=O)[C@@H](C)O | 7.6 | 43 | – | – | -6.1 | –
5 | C[C@@H](O)[C@H](NC(=O)C(C)(C)NC(=O)[C@H](CCCCNC(=O)C1CCNCC1)NC(=O)[C@H](CC(N)=O)NC(=O)C(C)(C)NC(=O)[C@H](CC1CCCCC1)NC(=O)[C@H](Cc1ccncc1)NC(=O)[C@H](CCCNC(=N)N)NC(=O)[C@H]1C[C@H](O)CN1C(=O)[C@H](CO)NC(=O)COCC(=O)NCCCOCCOCCOCCCNC(=O)CC[C@H](NC(=O)[C@H]1CC[C@H](CNC(=O)CCCCCCCCCCCCCCCCCCC(=O)O)CC1)C(=O)O)C(=O)N[C@@H](CCCNC(=N)N)C(=O)N[C@@H](CCC(N)=O)C(=O)N[C@@H](CCCNC(=N)N)C(=O)N[C@@H](CC1CCCCC1)C(N)=O | 4.5 | 67.3 | -11.6 | – | -17.2 | –
6 | CC[C@](C)(NC(=O)[C@H]1C[C@H](O)CN1C(=O)[C@H](CO)NC(=O)COCC(=O)NCCCOCCOCCOCCCNC(=O)CC[C@H](NC(=O)[C@H]1CC[C@H](CNC(=O)CCCCCCCCCCCCCCCCCCC(=O)O)CC1)C(=O)O)C(=O)N[C@@H](Cc1ccncc1)C(=O)N[C@@H](CC1CCCCC1)C(=O)N[C@@H](CC(C)(C)C)C(=O)N[C@@H](CC(N)=O)C(=O)N[C@@H](CCCCN)C(=O)NC(C)(C)C(=O)N[C@H](C(=O)N[C@@H](CCCNC(=N)N)C(=O)N[C@@H](CCC(N)=O)C(=O)N[C@@H](CCCNC(=N)N)C(=O)N[C@@H](CC1CCCCC1)C(N)=O)[C@@H](C)O | 13 | 47.8 | – | – | -15.1 | –
7 | CCCCCCCCCCCCCCCC(=O)NC[C@H]1CC[C@H](C(=O)N[C@@H](CCC(=O)NCCCOCCOCCOCCCNC(=O)COCC(=O)NCCCC[C@H](N)C(=O)NCCCC[C@H](NC(=O)[C@H](CC(N)=O)NC(=O)C(C)(C)NC(=O)[C@H](CC2CCCCC2)NC(=O)[C@H](Cc2ccncc2)NC(=O)[C@H](CCCNC(=N)N)NC(=O)[C@H]2C[C@H](O)CN2C(=O)[C@H](CO)NC(=O)c2c[nH]cn2)C(=O)NC(C)(C)C(=O)N[C@H](C(=O)N[C@@H](CCCNC(=N)N)C(=O)N[C@@H](CCC(N)=O)C(=O)N[C@@H](CCCNC(=N)N)C(=O)N[C@@H](CC2CCCCC2)C(N)=O)[C@@H](C)O)C(=O)O)CC1 | 0.19 | 36 | – | – | – | –
8 | C[C@@H](O)[C@H](NC(=O)C(C)(C)NC(=O)[C@H](CCCCNC(=O)[C@@H](N)CCCCNC(=O)COCC(=O)NCCCOCCOCCOCCCNC(=O)CC[C@H](NC(=O)[C@H]1CC[C@H](CNC(=O)CCCCCCCCCCCCCCCCCCC(=O)O)CC1)C(=O)O)NC(=O)[C@H](CC(N)=O)NC(=O)[C@H](CC(C)(C)C)NC(=O)[C@H](CC1CCCCC1)NC(=O)[C@H](Cc1ccncc1)NC(=O)[C@H](CCCNC(=N)N)NC(=O)[C@H]1C[C@H](O)CN1C(=O)[C@H](CO)NC(=O)c1c[nH]cn1)C(=O)N[C@@H](CCCNC(=N)N)C(=O)N[C@@H](CCC(N)=O)C(=O)N[C@@H](CCCNC(=N)N)C(=O)N[C@@H](CC1CCCCC1)C(N)=O | 3.4 | 58 | – | Soluble | -23.1 | –
9 | CC[C@](C)(NC(=O)[C@H]1C[C@H](O)CN1C(=O)[C@H](CO)NC(=O)COCC(=O)NCCCOCCOCCOCCCNC(=O)CC[C@H](NC(=O)[C@H]1CC[C@H](CNC(=O)CCCCCCCCCCCCCCCCCCC(=O)O)CC1)C(=O)O)C(=O)N[C@@H](Cc1ccncc1)C(=O)N[C@@H](CC1CCCCC1)C(=O)N[C@@H](CC(C)(C)C)C(=O)N[C@@H](CC(N)=O)C(=O)N[C@@H](CCCCNC(=O)C1CCNCC1)C(=O)NC(C)(C)C(=O)N[C@H](C(=O)N[C@@H](CCCNC(=N)N)C(=O)N[C@@H](CCC(N)=O)C(=O)N[C@@H](CCCNC(=N)N)C(=O)N[C@@H](CC1CCCCC1)C(N)=O)[C@@H](C)O | 7.6 | 52.8 | – | – | -22.3 | –
10 | C[C@@H](O)[C@H](NC(=O)C(C)(C)NC(=O)[C@H](CCCCNC(=O)[C@@H](N)CCCCNC(=O)COCC(=O)NCCCOCCOCCOCCCNC(=O)CC[C@H](NC(=O)[C@H]1CC[C@H](CNC(=O)CCCCCCCCCCCCCCCCCCC(=O)O)CC1)C(=O)O)NC(=O)[C@H](CC(N)=O)NC(=O)C(C)(C)NC(=O)[C@H](CC1CCCCC1)NC(=O)[C@H](Cc1ccncc1)NC(=O)[C@H](CCCNC(=N)N)NC(=O)[C@H]1C[C@H](O)CN1C(=O)[C@H](CO)NC(=O)c1c[nH]cn1)C(=O)N[C@@H](CCCNC(=N)N)C(=O)N[C@@H](CCC(N)=O)C(=O)N[C@@H](CCCNC(=N)N)C(=O)N[C@@H](CC1CCCCC1)C(N)=O | 8 | 61 | -16.5 | Soluble | -20.7 | Activity [4]: -8%; Cmax [5]: 32 nM; Tmax [6]: 4 h; AUC(0-t) at 48 h [7]: 0.373 µM·h; MRT [8]: 9.3 h; Activity [13]: Non-Toxic; Activity [14]: Toxic; Tmax [9]: 24 h; Cmax [10]: 10.8 nM
